Earlier results in patent publication US20070178051A1, “STERILIZED NANOPARTICULATE GLUCOCORTICOSTEROID FORMULATIONS” (Elan Pharma International, Ltd., priority 2006, published 2007).

| Structure (SMILES) | solubility in chloroform (chloroform) | solubility in ethanol (ethanol) | solubility in heptane (heptane) | solubility in water |
| --- | --- | --- | --- | --- |
| CCCC1O[C@@H]2C[C@H]3C4CCC5=CC(=O)C=CC5(C)[C@H]4[C@@H](O)CC3(C)C2(C(=O)CO)O1 (mixture of isomers) [Budesonide, (RS)-11,16,17,21-Tetrahydroxy-pregna-1,4-diene-3,20-dione cyclic 16,17-acetal with butraldehyde] | freely soluble | sparingly soluble | practically insoluble | practically insoluble |
| CCC(=O)O[C@]1(C(=O)SCF)[C@H](C)C[C@H]2[C@@H]3C[C@H](F)C4=CC(=O)C=C[C@]4(C)[C@@]3(F)[C@@H](O)C[C@@]21C [Fluticasone propionate, S-(fluoromethyl) 6a,9-difluoro-11b, 17-dihydroxy-16a-methyl-3-oxoandrosta-1,4-diene-17b-carbothioate, 17-propionate] | – | – | – | practically insoluble |
